From patent US6180622A, “Imidazo[5,1-b]thiazol-3-yl carbapenem antimicrobials” (priority 1996, dated 2001)
Values after ≈ are worked out from the molar mass of the structure shown.

Legend:
Test in all cases: Antimicrobial activity (minimum inhibitory concentration)
Format in all cases: cell-based
E. cloacae G-0008 = conditions: Enterobacter cloacae, G0008
Method: (§1) For representative compounds among the novel carbapenem derivatives of the present invention, the minimum inhibitory concentration (MIC, μg/ml) against various pathogenic bacteria was measured in accordance with a method described in CHEMOTHERAPY, Vol. 16, No. 1, 99 (1968).

E. coli NIHJ JC-2 = conditions: Escherichia coli, NIHJJC2
Method: as §1

P. vulgaris GN76 = conditions: Proteus vulgaris; P. vulgaris GN76; read-out: MIC
Method: as §1

Ps. aeruginosa GN10362 = conditions: Pseudomonas aeruginosa; Ps. aeruginosa GN10362; read-out: MIC
Method: as §1

K. pneumoniae PCI602 = conditions: Klebsiella pneumoniae
Method: as §1

M. morganii 1510 = conditions: Morganella morganii
Method: as §1

S. aureus 209P JC-1 = conditions: Staphylococcus aureus
Method: as §1

S. marcescens No. 1 = conditions: Serratia marcescens
Method: as §1

C. freundii GN346 = conditions: Citrobacter freundii
Method: as §1

S. aureus M126 = conditions: Staphylococcus aureus; S. aureus M126, highly meticillin-resistant strain
Method: as §1

E. coli GN206 = conditions: Escherichia coli
Method: as §1

| SMILES | MIC (E. cloacae G-0008) | MIC (E. coli NIHJ JC-2) | MIC (P. vulgaris GN76) | MIC (Ps. aeruginosa GN10362) | MIC (K. pneumoniae PCI602) | MIC (M. morganii 1510) | MIC (S. aureus 209P JC-1) | MIC (S. marcescens No. 1) | MIC (C. freundii GN346) | MIC (S. aureus M126) | MIC (E. coli GN206) |
| --- | --- | --- | --- | --- | --- | --- | --- | --- | --- | --- | --- |
| C[C@@H](O)[C@H]1C(=O)N2C(C(=O)O)=C(S[C@@H]3CN[C@H](C(O)c4csc5cncn45)C3)[C@H](C)[C@H]12 (single isomer, unassigned) [Ex. 6] | 0.1 µg/mL (≈ 0.215 µM) | 0.05 µg/mL (≈ 0.108 µM) | 0.78 µg/mL (≈ 1.68 µM) | 1.56 µg/mL (≈ 3.36 µM) | 0.1 µg/mL (≈ 0.215 µM) | 0.39 µg/mL (≈ 0.839 µM) | < 0.025 µg/mL | 0.2 µg/mL (≈ 0.431 µM) | 0.1 µg/mL (≈ 0.215 µM) | 6.25 µg/mL (≈ 13.5 µM) | 0.1 µg/mL (≈ 0.215 µM) |
| C[C@@H](O)[C@H]1C(=O)N2C(C(=O)O)=C(S[C@@H]3CN[C@H](C(O)c4cn5c[n+](C)cc5s4)C3)[C@H](C)[C@H]12 (single isomer, unassigned) [Ex. 18] | 0.05 µg/mL | 0.05 µg/mL | 0.39 µg/mL | 3.13 µg/mL | 0.1 µg/mL | 0.2 µg/mL | < 0.025 µg/mL | 0.1 µg/mL | 0.2 µg/mL | 12.5 µg/mL | 0.05 µg/mL |
| C[C@@H](O)[C@H]1C(=O)N2C(C(=O)O)=C(S[C@@H]3CN[C@H](C(=O)NCc4n5ccsc5c[n+]4C)C3)[C@H](C)[C@H]12 [Ex. 2, (1R,5S,6S)-6-((1R)-1-Hydroxyethyl)-1-methyl-2-[(3S,5S)-5-[(6-methylimidazo[5,1-b]thiazolium-5-yl)methylaminocarbonyl]pyrrolidin-3-yl]thiocarbapen-2-em-3-carboxylic acid chloride] | 0.1 µg/mL | 0.1 µg/mL | 1.56 µg/mL | 12.5 µg/mL | 0.1 µg/mL | 0.39 µg/mL | < 0.025 µg/mL | 0.2 µg/mL | 0.2 µg/mL | 6.25 µg/mL | 0.05 µg/mL |
| C[C@@H](O)[C@H]1C(=O)N2C(C(=O)O)=C(S[C@@H]3CN[C@H](/C=C\c4csc5cncn45)C3)[C@H](C)[C@H]12 [Ex. 38, (1R,5S,6S)-6-((1R)-1-Hydroxyethyl)-2-[(3S,5S)-5-[2(Z)-(imidazo[5,1-b]thiazol-3-yl)ethenyl]pyrrolidin-3-yl]thio-1-methylcarbapen-2-em-3-carboxylic acid] | 0.1 µg/mL (≈ 0.217 µM) | 0.1 µg/mL (≈ 0.217 µM) | 1.56 µg/mL (≈ 3.39 µM) | 6.25 µg/mL (≈ 13.6 µM) | 0.2 µg/mL (≈ 0.434 µM) | 0.78 µg/mL (≈ 1.69 µM) | 0.1 µg/mL (≈ 0.217 µM) | 0.2 µg/mL (≈ 0.434 µM) | 0.2 µg/mL (≈ 0.434 µM) | 25 µg/mL (≈ 54.3 µM) | 0.1 µg/mL (≈ 0.217 µM) |
| C[C@@H](O)[C@H]1C(=O)N2C(C(=O)O)=C(S[C@@H]3CN[C@H](/C=C\c4csc5c[n+](C)cn45)C3)[C@H](C)[C@H]12 [Ex. 39, (1R,5S,6S)-6-((1R)-1-Hydroxyethyl)-1-methyl-2-[(3S,5S)-5-[2(Z)-(6-methylimidazo[5,1-b]thiazolium-3-yl)ethenyl]pyrrolidin-3-yl]thiocarbapen-2-em-3-carboxylic acid chloride] | 0.05 µg/mL | < 0.025 µg/mL | 0.39 µg/mL | 6.25 µg/mL | 0.05 µg/mL | 0.2 µg/mL | < 0.025 µg/mL | 0.05 µg/mL | 0.1 µg/mL | 6.25 µg/mL | < 0.025 µg/mL |
| C[C@@H](O)[C@H]1C(=O)N2C(C(=O)O)=C(S[C@@H]3CN[C@H](c4csc5c[n+](C)cn45)C3)[C@H](C)[C@H]12 [Ex. 50, (1R,5S,6S)-6-((1R)-1-Hydroxyethyl)-1-methyl-2-[(3S,5S)-5-[(6-methylimidazo[5,1-b]thiazolium)-3-yl]pyrrolidin-3-yl]thiocarbapen-2-em-3-carboxylic acid chloride] | 0.05 µg/mL | 0.05 µg/mL | 0.78 µg/mL | 0.78 µg/mL | 0.1 µg/mL | 0.39 µg/mL | 0.05 µg/mL | 0.1 µg/mL | 0.1 µg/mL | 12.5 µg/mL | 0.05 µg/mL |
| C[C@@H](O)[C@H]1C(=O)N2C(C(=O)O)=C(S[C@@H]3CN[C@H](/C=C/c4cn5c[n+](CC(N)=O)cc5s4)C3)[C@H](C)[C@H]12 [Ex. 53A] | 0.1 µg/mL | 0.05 µg/mL | 0.78 µg/mL | 0.78 µg/mL | 0.1 µg/mL | 0.39 µg/mL | 0.05 µg/mL | 0.1 µg/mL | 0.1 µg/mL | 12.5 µg/mL | 0.1 µg/mL |
| C[C@@H](O)[C@H]1C(=O)N2C(C(=O)O)=C(S[C@@H]3CN[C@H](/C=C\c4cn5c[n+](CC(N)=O)cc5s4)C3)[C@H](C)[C@H]12 [Ex. 53B, (1R,5S,6S)-2-[(3S,5S)-5-[2(Z)-(6-(carbamoylmethyl)imidazo[5,1-b]thiazolium-2-yl)ethenyl]pyrrolidin-3-yl]thio-6-((1R)-1-hydroxyethyl)-1-methylcarbapen-2-em-3-carboxylic acid iodide] | 0.05 µg/mL | 0.05 µg/mL | 0.39 µg/mL | 0.78 µg/mL | 0.05 µg/mL | 0.2 µg/mL | < 0.025 µg/mL | 0.1 µg/mL | 0.05 µg/mL | 3.13 µg/mL | 0.05 µg/mL |
| C[C@@H](O)[C@H]1C(=O)N2C(C(=O)O)=C(S[C@@H]3CN[C@H](/C=C\c4csc5c[n+](CC(N)=O)cn45)C3)[C@H](C)[C@H]12 [Ex. 54] | < 0.025 µg/mL | < 0.025 µg/mL | 0.39 µg/mL | 1.56 µg/mL | 0.05 µg/mL | 0.2 µg/mL | < 0.025 µg/mL | 0.1 µg/mL | 0.05 µg/mL | 3.13 µg/mL | 0.05 µg/mL |
| Cc1n2cc(C[C@@H]3C[C@H](SC4=C(C(=O)O)N5C(=O)[C@H]([C@@H](C)O)[C@H]5[C@H]4C)CN3)sc2c[n+]1CCC(N)=O [Ex. 67, (1R,5S,6S)-2-[(3S,5S)-5-(6-(2-Carbamoylethyl)-5-methylimidazo[5,1-b]thiazolium-2-yl)methylpyrrolidin-3-yl]thio-6-((1R)-1-hydroxyethyl)-1-methylcarbapen-2-em-3-carboxylic acid chloride] | 0.05 µg/mL | 0.05 µg/mL | 0.78 µg/mL | 0.78 µg/mL | 0.1 µg/mL | 0.39 µg/mL | < 0.025 µg/mL | 0.39 µg/mL | 0.05 µg/mL | 12.5 µg/mL | 0.1 µg/mL |
| C[C@@H](O)[C@H]1C(=O)N2C(C(=O)[O-])=C(S[C@@H]3CN[C@H](/C=C\c4csc5c[n+](CCC(N)=O)cn45)C3)[C@H](C)[C@H]12 [Ex. 72, (1R,5S,6S)-2-[(3S,5S)-5-[2(Z)-(6-(2-Carbamoylethyl)imidazo[5,1-b]thiazolium-3-yl)ethenyl]pyrrolidin-3-yl]thio-6-((1R)-1-hydroxyethyl)-1-methylcarbapen-2-em-3-carboxylate] | 0.05 µg/mL (≈ 0.094 µM) | 0.05 µg/mL (≈ 0.094 µM) | 0.78 µg/mL (≈ 1.47 µM) | 1.56 µg/mL (≈ 2.93 µM) | 0.1 µg/mL (≈ 0.188 µM) | 0.39 µg/mL (≈ 0.734 µM) | < 0.025 µg/mL | 0.1 µg/mL (≈ 0.188 µM) | 0.1 µg/mL (≈ 0.188 µM) | 6.25 µg/mL (≈ 11.8 µM) | 0.1 µg/mL (≈ 0.188 µM) |
| C[C@@H](O)[C@H]1C(=O)N2C(C(=O)O)=C(S[C@@H]3CN[C@H](/C=C\c4cn5c[n+](CCC(N)=O)cc5s4)C3)[C@H](C)[C@H]12 [Ex. 76, (1R,5S,6S)-2-[(3S,5S)-5-[2(Z)-(6-(2-Carbamoylethyl)imidazo[5,1-b]thiazolium-2-yl)ethenyl]pyrrolidin-3-yl]thio-6-((1R)-1-hydroxyethyl)-1-methylcarbapen-2-em-3-carboxylic acid chloride] | 0.05 µg/mL | 0.05 µg/mL | 0.39 µg/mL | 0.78 µg/mL | 0.1 µg/mL | 0.2 µg/mL | < 0.025 µg/mL | 0.2 µg/mL | 0.1 µg/mL | 6.25 µg/mL | 0.1 µg/mL |
